Read-outs that look alike come from different tables or passages of the source.
What was measured:
Format in all cases: in vivo
[1] = test system: Eiysiphe graminis f. sp. tritici; experiment: Test A: wheat powdery mildew, preventive spray on wheat seedlings; conditions: for Test A disease control rating (100 = 100% disease control, 0 = no disease control): wheat seedlings sprayed to run-off, inoculated the following day, rating relative to controls, unmarked compounds (standard test rate); for Test A disease control rating: wheat powdery mildew
Description: (§1) The resulting test suspensions were then used in the following tests. […]
The test suspension was sprayed to the point of run-off on wheat seedlings. The following day the seedlings were inoculated with a spore dust of Eiysiphe graminis f. sp. tritici, (the causal agent of wheat powdery mildew) and incubated in a growth chamber at 20° C. for 7 days, after which disease ratings were made.
(§2) Results for Tests A-E are given in Table A. In the table, a rating of 100 indicates 100% disease control and a rating of 0 indicates no disease control (relative to the controls). A dash (-) indicates no test results. ND indicates disease control not determined due to phytotoxicity.

Puccinia recondita = experiment: Test B: wheat leaf rust, preventive spray on wheat seedlings; conditions: for Test B disease control rating (100 = 100% disease control, 0 = no disease control): wheat seedlings sprayed to run-off, inoculated the following day, rating relative to controls, unmarked compounds (standard test rate); for Test B disease control rating: wheat leaf rust
Description: as §1
The test suspension was sprayed to the point of run-off on wheat seedlings. The following day the seedlings were inoculated with a spore suspension of Puccinia recondita (the causal agent of wheat leaf rust) and incubated in a saturated atmosphere at 20° C. for 24 h, and then moved to a growth chamber at 20° C. for 6 days, after which disease ratings were made.
as §2

Pyricularia oryzae = conditions: for Test C disease control rating (100 = 100% disease control, 0 = no disease control): rice seedlings sprayed to run-off, inoculated the following day, rating relative to controls, unmarked compounds (standard test rate); for Test C disease control rating: rice blast
Phytophthora infestans = conditions: for Test D disease control rating (100 = 100% disease control, 0 = no disease control): tomato seedlings sprayed to run-off, inoculated the following day, rating relative to controls, unmarked compounds (standard test rate); for Test D disease control rating: tomato late blight
Botrytis cinerea = experiment: Test E: gray mold, preventive spray on cucumber seedlings; conditions: for Test E disease control rating (100 = 100% disease control, 0 = no disease control): cucumber seedlings sprayed to run-off, inoculated the following day, rating relative to controls, unmarked compounds (standard test rate); for Test E disease control rating: gray mold on cucumber
Description: The resulting test suspensions were then used in the following tests. Spraying these 200 ppm test suspensions to the point of run-off on the test plants is the equivalent of a rate of 500 g/ha.
The test suspension was sprayed to the point of run-off on cucumber seedlings. The following day the seedlings were inoculated with a spore suspension of Botrytis cinerea (the causal agent of gray mold on many crops) and incubated in a saturated atmosphere at 20° C. for 48 h, and moved to a growth chamber at 20° C. for 5 days, after which disease ratings were made.
as §2

[2] = 100 = 100% disease control, 0 = no control relative to controls, unmarked entries (standard test concentration)
[3] = 100 = 100% disease control, 0 = no control, unmarked entries (standard test concentration)

SMILES	Test A disease control rating [1, 2]	Test B disease control rating (Puccinia recondita; [3])	Test C disease control rating (Pyricularia oryzae; [3])	Test D disease control rating (Phytophthora infestans; [3])	Test E disease control rating (Botrytis cinerea; [3])	also measured
CCC(C)c1ccccc1OCC(C)NC(=O)C(C#N)C(C)(C)C (mixture of isomers) [compound 306]	–	–	–	–	–	Test A disease control rating (100 = 100% disease control, 0 = no disease control) [1]: 0%; Test B disease control rating (100 = 100% disease control, 0 = no disease control) (Puccinia recondita): 67%; Test C disease control rating (100 = 100% disease control, 0 = no disease control) (Pyricularia oryzae): 99%; Test D disease control rating (100 = 100% disease control, 0 = no disease control) (Phytophthora infestans): 0%; Test E disease control rating (100 = 100% disease control, 0 = no disease control) (Botrytis cinerea): 94%
CC(COc1ccccc1F)NC(=O)C1(C)CC1(Cl)Cl (mixture of isomers) [compound 315]	–	–	–	–	–	Test A disease control rating (100 = 100% disease control, 0 = no disease control) [1]: 60%; Test B disease control rating (100 = 100% disease control, 0 = no disease control) (Puccinia recondita): 99%; Test C disease control rating (100 = 100% disease control, 0 = no disease control) (Pyricularia oryzae): 51%; Test D disease control rating (100 = 100% disease control, 0 = no disease control) (Phytophthora infestans): 16%; Test E disease control rating (100 = 100% disease control, 0 = no disease control) (Botrytis cinerea): 0%
C[C@H](COc1cc(Cl)ccc1Cl)NC(=O)C(C#N)C(C)(C)C (single isomer, unassigned) [33a]	0%	0%	97%	0%	0%	–
C[C@H](COc1ccc(F)c(F)c1Br)NC(=O)C(C#N)C(C)(C)C (single isomer, unassigned) [187a]	0%	28%	94%	9%	6%	–
CCC1(C(=O)NC(C)COn2c(C#N)cc(Cl)c2C)C(C)C1(Cl)Cl (mixture of isomers) [140a]	29%	0%	90%	0%	0%	–
C[C@H](COc1ccc(Cl)c(F)c1)NC(=O)C(C#N)C(C)(C)C (single isomer, unassigned) [182b]	0%	68%	94%	0%	0%	–
CCc1ccccc1OCC(C)NC(=O)C1(CC)C(C)C1(Cl)Cl (mixture of isomers) [97a]	–	–	–	–	–	Test A disease control rating ([1]; tested at 40 ppm): 0%; Test B disease control rating (Puccinia recondita; tested at 40 ppm): 0%; Test C disease control rating (Pyricularia oryzae; tested at 40 ppm): 0%; Test D disease control rating (Phytophthora infestans; tested at 40 ppm): 20%; Test E disease control rating (Botrytis cinerea; tested at 40 ppm): 0%
C[C@H](COc1cc(Cl)cc(Cl)c1Cl)NC(=O)C(C#N)C(C)(C)C (single isomer, unassigned) [170a]	35%	0%	53%	0%	58%	–
CCC1(C(=O)NC(C)COc2ccc(F)c(F)c2)C(C)C1(Cl)Cl (centres unmarked) [compound 108]	–	–	–	–	–	Test A disease control rating ([1]; tested at 40 ppm): 57%; Test B disease control rating (Puccinia recondita; tested at 40 ppm): 0%; Test C disease control rating (Pyricularia oryzae; tested at 40 ppm): 94%; Test D disease control rating (Phytophthora infestans; tested at 40 ppm): 0%; Test E disease control rating (Botrytis cinerea; tested at 40 ppm): 0%
CCC1(C(=O)NC(C)COc2ccccc2C#N)C(C)C1(Cl)Cl (mixture of isomers) [89a]	0%	0%	74%	20%	0%	–
CCC1(C(=O)NC(C)COc2cc(F)cc(F)c2F)C(C)C1(Cl)Cl (centres unmarked) [compound 109]	–	–	–	–	–	Test A disease control rating ([1]; tested at 40 ppm): 52%; Test B disease control rating (Puccinia recondita; tested at 40 ppm): 0%; Test C disease control rating (Pyricularia oryzae; tested at 40 ppm): 53%; Test D disease control rating (Phytophthora infestans; tested at 40 ppm): 0%; Test E disease control rating (Botrytis cinerea; tested at 40 ppm): 0%
C=CCc1cc(C)ccc1OCC(C)NC(=O)C(C#N)C(C)(C)C (mixture of isomers) [compound 185]	0%	28%	86%	9%	45%	–
C[C@H](COc1cccc(Br)c1)NC(=O)C(C#N)C(C)(C)C (single isomer, unassigned) [9c]	62%	28%	100%	51%	0%	–
C[C@H](COc1cc(F)c(F)cc1F)NC(=O)C(C#N)C(C)(C)C (single isomer, unassigned) [188a]	0%	0%	97%	56%	0%	–
C#CC(C)(C=C)C(C#N)C(=O)NC(C)COc1cc(F)ccc1Cl (mixture of isomers) [compound 303]	–	–	–	–	–	Test A disease control rating (100 = 100% disease control, 0 = no disease control) [1]: 0%; Test B disease control rating (100 = 100% disease control, 0 = no disease control) (Puccinia recondita): 0%; Test C disease control rating (100 = 100% disease control, 0 = no disease control) (Pyricularia oryzae): 99%; Test D disease control rating (100 = 100% disease control, 0 = no disease control) (Phytophthora infestans): 100%; Test E disease control rating (100 = 100% disease control, 0 = no disease control) (Botrytis cinerea): 0%
CCC1(C(=O)NC(C)COc2cccc(Br)c2)C(C)C1(Cl)Cl (mixture of isomers) [85b]	–	–	–	–	–	Test A disease control rating ([1]; tested at 40 ppm): 0%; Test B disease control rating (Puccinia recondita; tested at 40 ppm): 0%; Test C disease control rating (Pyricularia oryzae; tested at 40 ppm): 53%; Test D disease control rating (Phytophthora infestans; tested at 40 ppm): 0%; Test E disease control rating (Botrytis cinerea; tested at 40 ppm): 0%
CC(COc1cccc(C(F)(F)F)c1C#N)NC(=O)C(C#N)C(C)C(C)(C)C (mixture of isomers) [compound 66]	0%	0%	0%	69%	0%	–
CCC1(C(=O)NCC=Cc2cccs2)C(C)C1(Cl)Cl (centres unmarked) [compound 164]	0%	0%	72%	56%	7%	–
C=CCc1cccc(C#N)c1OCC(C)NC(=O)C(C#N)C(C)(C)C (mixture of isomers) [compound 204]	0%	0%	74%	0%	0%	–
C[C@H](COc1ccccc1F)NC(=O)C(C#N)C(C)(C)C (single isomer, unassigned) [2c]	86%	0%	100%	24%	0%	–
CCC1(C(=O)NC(C)COn2c(C#N)cc(Br)c2C)C(C)C1(Cl)Cl (mixture of isomers) [compound 141]	38%	68%	74%	84%	0%	–
CC(COc1ccc(C(C)(C)C)cc1)NC(=O)C(C#N)C(C)(C)C (mixture of isomers) [compound 24]	62%	0%	53%	66%	94%	–

— patent publication US6642392B1 (priority 1997, dated 2003)
